Values of other authors, collected in the PKSmart pharmacokinetics tables (Seal et al. 2025).

Columns and labels:
[1] = Lombardo et al. 2013, J Clin Pharmacol 53:178, doi 10.1177/0091270012440282; conditions: for Vd / clearance: in vivo, iv; for fraction unbound: plasma
[2] = Lombardo, Berellini, Obach 2018, Drug Metab Dispos 46:1466, doi 10.1124/dmd.118.082966; conditions: human; for MRT / Vd / clearance / half-life: in vivo, iv; for fraction unbound: plasma

Compound	clearance ([1]; rat) [mL/min/kg]	Vd ([1]; rat) [L/kg]	MRT [2] [h]	Vd [2] [L/kg]	clearance [2] [mL/min/kg]	half-life [2] [h]	also measured
O=C(c1ccccc1)c1ccc2n1CCC2C(=O)O (centres undefined)	3.6						Vd ([1]; dog): 0.33 L/kg; clearance ([1]; dog): 1.25 mL/min/kg
NC(N)=Nc1nc(CSCCC(N)=NS(N)(=O)=O)cs1	22	0.8					Vd ([1]; dog): 0.79 L/kg; clearance ([1]; dog): 8.6 mL/min/kg; fraction unbound ([1]; dog): 0.72; Vd ([1]; monkey): 2.1 L/kg; clearance ([1]; monkey): 15 mL/min/kg; fraction unbound ([1]; monkey): 0.13; fraction unbound ([1]; rat): 0.47
CONC(C(=O)N=C1C(=O)N2C(C(=O)[O-])=C(C[N+]34CCC(C(N)=O)(CC3)CC4)CS[C@H]12)c1nsc(N)n1 (some centres undefined)							Vd ([1]; dog): 0.23 L/kg; clearance ([1]; dog): 3.3 mL/min/kg
COCCc1ccc(OCC(O)CNC(C)C)cc1 (centres undefined)	87.2	6.3					fraction unbound ([1]; dog): 0.756; Vd ([1]; monkey): 14 L/kg; clearance ([1]; monkey): 21.9 mL/min/kg; fraction unbound ([1]; monkey): 0.825; fraction unbound ([1]; rat): 0.69
CC(C)=CCN1CC[C@@]2(C)c3cc(O)ccc3C[C@@H]1[C@@H]2C							Vd ([1]; monkey): 9.62 L/kg; clearance ([1]; monkey): 56.6 mL/min/kg
OC(CCN1CCCCC1)(c1ccccc1)C1CC2C=CC1C2 (centres undefined)							Vd ([1]; dog): 9.7 L/kg; clearance ([1]; dog): 27 mL/min/kg; fraction unbound ([1]; dog): 0.19; fraction unbound ([1]; rat): 0.31
CCC[C@@H]1CC(C(=O)N[C@@H]([C@H]2O[C@H](SC)[C@H](O)[C@@H](O)[C@H]2O)[C@H](C)Cl)N(C)C1 (some centres undefined)							fraction unbound ([1]; dog): 0.035; fraction unbound ([1]; rat): 0.325
Valproic Acd	4.2	0.66					Vd ([1]; dog): 0.33 L/kg; clearance ([1]; dog): 3.03 mL/min/kg; fraction unbound ([1]; dog): 0.215; Vd ([1]; monkey): 0.25 L/kg; clearance ([1]; monkey): 4.2 mL/min/kg; fraction unbound ([1]; monkey): 0.22; fraction unbound ([1]; rat): 0.366
CN[C@@H]1C[C@H]2O[C@@](C)([C@@H]1OC)n1c3ccccc3c3c4c(c5c6ccccc6n2c5c31)C(=O)N[C@@H]4O	65	16.7					Vd ([1]; dog): 6.09 L/kg; clearance ([1]; dog): 10.2 mL/min/kg; fraction unbound ([1]; dog): 0.0074
[H]/N=C(\N)c1ccc(CNC(=O)C2CCN2C(=O)C(NCC(=O)O)C2CCCCC2)cc1 (centres undefined)	16.9	0.39					Vd ([1]; dog): 0.36 L/kg; clearance ([1]; dog): 7 mL/min/kg; fraction unbound ([1]; dog): 0.89; fraction unbound ([1]; rat): 0.9
COC(=O)Nc1nc2ccc(C(=O)c3ccccc3)cc2[nH]1	9.8	2.6					
CCC#CC[C@H](C)[C@H](O)C#C[C@@H]1[C@H]2C/C(=C/COCCCC(=O)O)C[C@H]2C[C@H]1O	170	1.5					Vd ([1]; monkey): 1.6 L/kg; clearance ([1]; monkey): 63.1 mL/min/kg
CC(=O)N[C@H]1[C@H]([C@H](O)[C@H](O)CO)OC(C(=O)O)=C[C@@H]1N=C(N)N	31.7	0.8					
CC1C(=O)O[C@H]2[C@H](O)[C@@]34[C@H]5C[C@@H](C(C)(C)C)[C@@]36C(O)C(=O)O[C@H]6O[C@@]4(C(=O)O5)[C@@]12O (some centres undefined)	60	3.5					
CC(C)(C)[C@]1(O)C[C@@H]2OC(=O)C[C@@]23C(=O)O[C@@H]2OC(=O)C(O)[C@]213 (some centres undefined)	140	10					
O=c1nc[nH]c2c1ncn2[C@H]1CC[C@@H](CO)O1	150	1.3					Vd ([1]; dog): 0.96 L/kg; clearance ([1]; dog): 25.3 mL/min/kg; Vd ([1]; monkey): 1.3 L/kg; clearance ([1]; monkey): 27.2 mL/min/kg
CCOC(=O)c1ccc(C#Cc2ccc3c(c2)C(C)(C)CCS3)nc1			1.56	3.55	37.2	6.22	

Compound	clearance ([1]; rat) [mL/min/kg]	Vd ([1]; rat) [L/kg]	MRT [2] [h]	Vd [2] [L/kg]	clearance [2] [mL/min/kg]	half-life [2] [h]	also measured
O=C(O)CCCSCCN1C(=O)CC[C@@H]1/C=C/[C@@H](O)Cc1ccc(F)cc1			0.51	0.48	15.8	0.38	
C#CCN(C)C(C)Cc1ccccc1 (centres undefined)			1.6	1.9	20	1.3	
CC(C)(C)c1[nH]cnc1/C=c1\[nH]c(=O)/c(=C/c2ccccc2)[nH]c1=O			6.7	3	7.4	6.3	
CCN(CC)CCCC(C)Nc1ccnc2cc(Cl)ccc12 (centres undefined)			740	140	4.1	570	
CC[N+](C)(C)c1cccc([O-])c1			1.9	1.1	9.6	1.8	
O=C(O[C@H]1C[C@H]2CC3C[C@@H](C1)N2CC3=O)c1c[nH]c2ccccc12			0.19	2		0.13	fraction unbound [2]: 0.49
CCCC[S@](=N)(=O)CCC(N)C(=O)O (some centres undefined)			1.9	0.26	2.28	1.68	
Clc1ccc2nsnc2c1NC1=NCCN1			3.6	2.4	11	2.4	
Nc1n[n+]([O-])c2ccccc2[n+]1[O-]							fraction unbound [2]: 0.81
NC(=O)C(c1ccccc1)(c1ccccc1)[C@@H]1CCN(CCc2ccc3c(c2)CCO3)C1	59	7					Vd ([1]; dog): 6.8 L/kg; clearance ([1]; dog): 39 mL/min/kg
Oc1ccc([C@H]2CNCCc3c2cc(O)c(O)c3Cl)cc1			0.2	0.5	41.5	1	fraction unbound [2]: 0.12
CO[C@H]1/C=C/O[C@@]2(C)Oc3c(C)c(O)c4c(O)c(c(/C=N/N5CCN(C)CC5)c(O)c4c3C2=O)NC(=O)C(C)=CC=CC(C)[C@H](O)[C@@H](C)[C@@H](O)[C@@H](C)[C@H](OC(C)=O)[C@@H]1C (some centres undefined)			4.6	0.97	3.5		
CC(=O)OC1=C2C(C)[C@@H](OC(=O)C(O)C(NC(=O)c3ccccc3)c3ccccc3)C[C@@](O)([C@@H](OC(=O)c3ccccc3)[C@@H]3[C@]4(OC(C)=O)CO[C@@H]4C[C@H](O)[C@@]3(C)C1=O)C2(C)C (some centres undefined)			7.8	3	6.4	11	fraction unbound [2]: 0.12
CCCCN1CCCC1C(=O)Nc1c(C)cc(C)cc1C (centres undefined)			1.51	1.73	19.2	1.58	
Cc1ccccc1N1C(=O)c2cc(S(N)(=O)=O)c(Cl)cc2NC1C (centres undefined)			19	1.6	1.4	20	
CC(C)(C)NCC(O)COc1cccc2c1CC(O)C(O)C2 (centres undefined)			11	1.9	2.9	9.2	fraction unbound [2]: 0.14
CO[C@H]1C[C@@H](O[C@@H]2C(C)C(=O)O[C@H](C)[C@H](C)[C@H](O)C(C)C(=O)[C@@]3(CO3)C[C@H](C)[C@H](O[C@H]3O[C@@H](C)C[C@@H](N(C)C)[C@H]3O)[C@H]2C)O[C@@H](C)[C@@H]1O (some centres undefined)			1.41	0.77	9.1	1.05	fraction unbound [2]: 0.4
